Several values for one entry are separate records, joined by “and”; a condition that tells them apart may be missing. Equal values may be shown once.
Test system: HIV-1 (patient-derived POL segment)
Experiment: phenotypic drug resistance test, resistance test vectors with patient-derived POL segment (entire pol gene), luciferase, 293 cells
Assay type: cell-based
Text: Patient-derived segment(s) corresponding to the entire pol gene, encoding HIV protease, reverse transcriptase (including RNAse H), and integrase (hereinafter “POL”), the portion of pol encoding amino acids 1-305 of reverse transcriptase (hereinafter “PR-RT”), the portion of pol encoding amino acids 319-440 of reverse transcriptase (including RNAse H), and integrase (hereinafter “RHIN”), were amplified by the reverse transcription-polymerase chain reaction method (RT-PCR) using viral RNA isolated from viral particles present in the plasma or serum of HIV-infected individuals as described below. The portion of pol encoding protease, amino acids 1-531 of reverse transcriptase (including RNase H) (hereinafter “PRRT-RH”), or the portion of pol encoding protease, reverse transcriptase (including RNAse H) and integrase (hereinafter “PRRT-RHIN”), were assembled from amplicons described above by standard recombinant DNA techniques involving a KpnI restriction site at amino acid 400 or a Pin A1 site at amino acid 315.
Virus was pelleted by centrifugation at 20,400×g for 60 min from plasma (typically, 1 ml) prepared from blood samples collected in evacuated tubes containing either EDTA, acid-citrate dextrose, or heparin as an anticoagulant. Virus particles were disrupted by resuspending the pellets in 200 [1.1 of lysis buffer (4 M guanidine thiocyanate, 0.1 M Tris HCl (pH 8.0), 0.5% sodium lauryl sarcosine, 1% dithiothreitol). RNA was extracted from viral lysates by using oligo(dT) linked to magnetic beads (Dynal, Oslo, Norway). Reverse transcription was performed with Superscript III (Invitrogen) at 50 degrees for 1 hour using primer 1.
From the resultant cDNA either POL or RHIN sequences were amplified using the Advantage High Fidelity PCR kit (BD Biosciences; Clontech). POL amplification products are made using forward Primer 3 containing an Apal site and reverse Primer 4 containing a Xho 1 site. RHIN amplification products are made using forward Primer 2 containing a P1NA1 site and reverse Primer 4 containing a Xho 1 site.
A retroviral vector designed to measure antiretroviral drug susceptibility was constructed by using an infectious molecular clone of HIV-1. The vector, referred to herein as an indicator gene viral vector (IGVV), is replication defective and contains a luciferase expression cassette inserted within a deleted region of the envelope (env) gene. The IGVV is described in U.S. Pat. No. 5,837,464 (International Publication Number WO 97/27319) which is hereby incorporated by reference in its entirety. This retroviral vector was further modified to allow insertion of either the entire pol gene (POL) or the portion of poi encoding amino acids 319-440 of reverse transcriptase, the RNase H portion of reverse transcriptase, and integrase (REIN) by engineering an Xho l restriction enzyme recognition site into vif. Prior to doing this, an Xho 1 site in nef was deleted. Resistance Test vectors (RTVs) were constructed by incorporating amplified POL or RHIN into the IGVV by using Apal and Xhol or PinAI and Xho 1 restriction sites respectively. RTVs were prepared as libraries (pools) in order to capture and preserve the pol or RHIN sequence heterogeneity of the virus in the patient. POL amplification products were digested with Apal and Xhol, purified by agarose gel electrophoresis, and ligated to ApaI- and Xhol-digested IGVV DNA. RHIN amplification products were digested with PinAI and Xho/, purified by agarose gel electrophoresis, and ligated to PinAI and Xhol-digested IGVV DNA. Ligation reactions were used to transform competent Escherichia coli (Invitrogen, Carlsbad, Calif.). An aliquot of each transformation was plated onto agar, and colony counts were used to estimate the number of patient-derived segments represented in each RTV library. RTV libraries that comprised less than 50 members are not considered representative of the patient virus. […]

[1] = Sample 47 (K103K/N, V106V/A, Y181Y/C, G190G/A)
[2] = Sample 58 (K103N, Y181Y/C, G190G/A)
[3] = Sample 62 (K103H, P225P/H, T369T/I)
[4] = Sample 90 (K103K/N, Y181C, G190A)

CC(C)Nc1cccnc1N1CCN(C(=O)c2cc3cc(NS(C)(=O)=O)ccc3[nH]2)CC1 [DLV, delavirdine]
fold change in IC50, pol (Sample 31 (K103N)): 28.0 fold
pol/PR-RT ratio (Sample 31 (K103N)): 1.7
fold change in IC50, pol (Sample 33 (K103S)): 5.7 fold
pol/PR-RT ratio (Sample 33 (K103S)): 0.7
fold change in IC50, pol (Sample 34): 0.4 fold
pol/PR-RT ratio (Sample 34): 1.0
fold change in IC50, pol (Sample 35 (K103H)): 5.4 fold
pol/PR-RT ratio (Sample 35 (K103H)): 0.8
fold change in IC50, pol (Sample 36 (K103K/W)): 1.9 fold
pol/PR-RT ratio (Sample 36 (K103K/W)): 0.2
fold change in IC50, pol (Sample 38 (K103N)): 66.0 fold
pol/PR-RT ratio (Sample 38 (K103N)): 0.5
fold change in IC50, pol (Sample 39 (T369A)): 1.2 fold
pol/PR-RT ratio (Sample 39 (T369A)): 5.1
fold change in IC50, pol (Sample 42 (G190G/A)): 0.2 fold
pol/PR-RT ratio (Sample 42 (G190G/A)): 0.5
fold change in IC50, pol (Sample 45): 0.1 fold
pol/PR-RT ratio (Sample 45): 0.7
fold change in IC50, pol [1]: 5.4 fold
pol/PR-RT ratio [1]: 0.9
fold change in IC50, pol (Sample 50 (K103N)): 65.4 fold
pol/PR-RT ratio (Sample 50 (K103N)): 0.3
fold change in IC50, pol (Sample 51): 0.3 fold
pol/PR-RT ratio (Sample 51): 0.9
fold change in IC50, pol (Sample 52): 2.7 fold
pol/PR-RT ratio (Sample 52): 0.8
fold change in IC50, pol [2]: 250.0 fold
pol/PR-RT ratio [2]: 1.7
fold change in IC50, pol [3]: 140.0 fold and 140.00 fold
pol/PR-RT ratio [3]: 8.8
fold change in IC50, pol (Sample 64 (T369T/A)): 0.3 fold
pol/PR-RT ratio (Sample 64 (T369T/A)): 0.2
fold change in IC50, pol (Sample 69): 1.8 fold
pol/PR-RT ratio (Sample 69): 1.2
fold change in IC50, pol (Sample 72): 1.2 fold
pol/PR-RT ratio (Sample 72): 1.4
fold change in IC50, pol (Sample 80 (K103K/N, Y181Y/C)): 22.0 fold
pol/PR-RT ratio (Sample 80 (K103K/N, Y181Y/C)): 0.3
fold change in IC50, pol (Sample 81 (K103N, P225H)): 9.5 fold
pol/PR-RT ratio (Sample 81 (K103N, P225H)): 0.8
fold change in IC50, pol (Sample 84): 0.5 fold
pol/PR-RT ratio (Sample 84): 0.6
fold change in IC50, pol (Sample 85): 69.0 fold
pol/PR-RT ratio (Sample 85): 2.7
fold change in IC50, pol (Sample 87): 0.7 fold
pol/PR-RT ratio (Sample 87): 0.9
fold change in IC50, pol (Sample 89 (L1001, K103N)): 250.0 fold
pol/PR-RT ratio (Sample 89 (L1001, K103N)): 1.0
fold change in IC50, pol [4]: 4.8 fold
pol/PR-RT ratio [4]: 1.1
fold change in IC50, pol (Sample 92): 0.8 fold
pol/PR-RT ratio (Sample 92): 0.8
fold change in IC50, pol (Sample 93): 0.2 fold
pol/PR-RT ratio (Sample 93): 0.6

O=C1Nc2ccc(Cl)cc2[C@@](C#CC2CC2)(C(F)(F)F)O1 [EFV, efavirenz]
fold change in IC50, pol (Sample 31 (K103N)): 56.0 fold
pol/PR-RT ratio (Sample 31 (K103N)): 2.5
fold change in IC50, pol (Sample 33 (K103S)): 5.9 fold
pol/PR-RT ratio (Sample 33 (K103S)): 0.8
fold change in IC50, pol (Sample 34): 0.6 fold
pol/PR-RT ratio (Sample 34): 1.4
fold change in IC50, pol (Sample 35 (K103H)): 9.5 fold
pol/PR-RT ratio (Sample 35 (K103H)): 1.0
fold change in IC50, pol (Sample 36 (K103K/W)): 2.2 fold
pol/PR-RT ratio (Sample 36 (K103K/W)): 0.3
fold change in IC50, pol (Sample 38 (K103N)): 27.0 fold
pol/PR-RT ratio (Sample 38 (K103N)): 0.6
fold change in IC50, pol (Sample 39 (T369A)): 1.0 fold
pol/PR-RT ratio (Sample 39 (T369A)): 4.0
fold change in IC50, pol (Sample 42 (G190G/A)): 1.1 fold
pol/PR-RT ratio (Sample 42 (G190G/A)): 0.3
fold change in IC50, pol (Sample 45): 0.2 fold
pol/PR-RT ratio (Sample 45): 1.0
fold change in IC50, pol [1]: 30.2 fold
pol/PR-RT ratio [1]: 0.2
fold change in IC50, pol (Sample 50 (K103N)): 24.1 fold
pol/PR-RT ratio (Sample 50 (K103N)): 0.4
fold change in IC50, pol (Sample 51): 0.5 fold
pol/PR-RT ratio (Sample 51): 1.1
fold change in IC50, pol (Sample 52): 1.1 fold
pol/PR-RT ratio (Sample 52): 0.8
fold change in IC50, pol [2]: 153.9 fold
pol/PR-RT ratio [2]: 5.8
fold change in IC50, pol [3]: 202 fold and 202.0 fold and 202.00 fold
pol/PR-RT ratio [3]: 10.1
fold change in IC50, pol (Sample 64 (T369T/A)): 0.3 fold
pol/PR-RT ratio (Sample 64 (T369T/A)): 0.3
fold change in IC50, pol (Sample 69): 1.2 fold
pol/PR-RT ratio (Sample 69): 1.6
fold change in IC50, pol (Sample 72): 0.8 fold
pol/PR-RT ratio (Sample 72): 1.5
fold change in IC50, pol (Sample 80 (K103K/N, Y181Y/C)): 6.3 fold
pol/PR-RT ratio (Sample 80 (K103K/N, Y181Y/C)): 0.6
fold change in IC50, pol (Sample 81 (K103N, P225H)): 136.0 fold
pol/PR-RT ratio (Sample 81 (K103N, P225H)): 1.4
fold change in IC50, pol (Sample 84): 0.7 fold
pol/PR-RT ratio (Sample 84): 1.0
fold change in IC50, pol (Sample 85): 77.0 fold
pol/PR-RT ratio (Sample 85): 3.5
fold change in IC50, pol (Sample 87): 1.0 fold
pol/PR-RT ratio (Sample 87): 1.1
fold change in IC50, pol (Sample 89 (L1001, K103N)): 700.0 fold
pol/PR-RT ratio (Sample 89 (L1001, K103N)): 1.0
fold change in IC50, pol [4]: 66.0 fold
pol/PR-RT ratio [4]: 1.3
fold change in IC50, pol (Sample 92): 0.8 fold
pol/PR-RT ratio (Sample 92): 0.8
fold change in IC50, pol (Sample 93): 0.7 fold
pol/PR-RT ratio (Sample 93): 0.8

Cc1ccnc2c1NC(=O)c1cccnc1N2C1CC1 [NVP, nevirapine]
fold change in IC50, pol (Sample 31 (K103N)): 400.0 fold
pol/PR-RT ratio (Sample 31 (K103N)): 4.5
fold change in IC50, pol (Sample 33 (K103S)): 25.1 fold
pol/PR-RT ratio (Sample 33 (K103S)): 1.1
fold change in IC50, pol (Sample 34): 0.3 fold
pol/PR-RT ratio (Sample 34): 1.3
fold change in IC50, pol (Sample 35 (K103H)): 28.3 fold
pol/PR-RT ratio (Sample 35 (K103H)): 1.1
fold change in IC50, pol (Sample 36 (K103K/W)): 2.4 fold
pol/PR-RT ratio (Sample 36 (K103K/W)): 0.2
fold change in IC50, pol (Sample 38 (K103N)): 81.0 fold
pol/PR-RT ratio (Sample 38 (K103N)): 0.7
fold change in IC50, pol (Sample 39 (T369A)): 2.8 fold
pol/PR-RT ratio (Sample 39 (T369A)): 9.0
fold change in IC50, pol (Sample 42 (G190G/A)): 7.1 fold
pol/PR-RT ratio (Sample 42 (G190G/A)): 0.2
fold change in IC50, pol (Sample 45): 0.3 fold
pol/PR-RT ratio (Sample 45): 1.1
fold change in IC50, pol [1]: 400.0 fold
pol/PR-RT ratio [1]: 1.0
fold change in IC50, pol (Sample 50 (K103N)): 72.7 fold
pol/PR-RT ratio (Sample 50 (K103N)): 0.5
fold change in IC50, pol (Sample 51): 0.7 fold
pol/PR-RT ratio (Sample 51): 1.6
fold change in IC50, pol (Sample 52): 1.8 fold
pol/PR-RT ratio (Sample 52): 0.9
fold change in IC50, pol [2]: 400.0 fold
pol/PR-RT ratio [2]: 1.0
fold change in IC50, pol [3]: 400.0 fold and 400.00 fold
pol/PR-RT ratio [3]: 6.3
fold change in IC50, pol (Sample 64 (T369T/A)): 0.3 fold
pol/PR-RT ratio (Sample 64 (T369T/A)): 0.3
fold change in IC50, pol (Sample 69): 1.6 fold
pol/PR-RT ratio (Sample 69): 1.6
fold change in IC50, pol (Sample 72): 1.1 fold
pol/PR-RT ratio (Sample 72): 1.6
fold change in IC50, pol (Sample 80 (K103K/N, Y181Y/C)): 17.0 fold
pol/PR-RT ratio (Sample 80 (K103K/N, Y181Y/C)): 0.4
fold change in IC50, pol (Sample 81 (K103N, P225H)): 114.0 fold
pol/PR-RT ratio (Sample 81 (K103N, P225H)): 1.2
fold change in IC50, pol (Sample 84): 0.9 fold
pol/PR-RT ratio (Sample 84): 1.2
fold change in IC50, pol (Sample 85): 400.0 fold
pol/PR-RT ratio (Sample 85): 3.0
fold change in IC50, pol (Sample 87): 1.4 fold
pol/PR-RT ratio (Sample 87): 1.7
fold change in IC50, pol (Sample 89 (L1001, K103N)): 400.0 fold
pol/PR-RT ratio (Sample 89 (L1001, K103N)): 10.8
fold change in IC50, pol [4]: 400.0 fold
pol/PR-RT ratio [4]: 1.0
fold change in IC50, pol (Sample 92): 1.1 fold
pol/PR-RT ratio (Sample 92): 1.0
fold change in IC50, pol (Sample 93): 1.4 fold
pol/PR-RT ratio (Sample 93): 0.9
